Laboratory results from PMC4192545, “Suramin Inhibits Hsp104 ATPase and Disaggregase Activity” (PLoS ONE, 2014).

How the values were obtained:
ClpB = molecular target: T1, ClpB (Escherichia coli, UniProt P63284); test: ClpB luciferase reactivation assay; format: biochemical, E. coli
T1 construct: made in house
Method: (§1) Luciferase reactivation was performed as described, [37]. To assemble aggregates, firefly luciferase (50 µM) in luciferase refolding buffer (LRB, 25 mM HEPES-KOH, 7.4, 150 mM KAOc, 10 mM MgAOc, 10 mM DTT) with 6 M urea was incubated at 30°C for 20 min. Luciferase was then rapidly diluted 100-fold into LRB, divided into 100 µL aliquots, snap frozen in liquid N2, and stored at −80°C. For reactivation assays, aggregated luciferase (50 nM) was incubated with Hsp104 (1 µM hexamer), plus 2.6 mM ATPγS, 2.6 mM ATP and an ATP regeneration system (1 mM creatine phosphate, 0.25 µM creatine kinase (Roche Applied Science)) for 90 minutes at 25°C. Luciferase assay system was purchased from Promega. Luciferase activity was assessed by luminescence measured on a Safire^2 microplate reader (Tecan, Männedorf, Switzerland). The half maximal inhibitory concentration (IC50) was calculating by fitting luciferase-refolding data at different Suramin concentrations with Prism (GraphPad Software, Inc., La Jolla, CA).
(A) ClpB (0.25 µM monomer) was incubated for 10 min with ATP (1 mM) and varying concentrations of Suramin. The amount of Pi produced was measured by absorbance at 635 nm. Absorbance values were normalized to the absorbance produced by ClpB in the absence of inhibitor. Values represent mean ±S.D. (n = 6). (B) Urea-denatured firefly luciferase aggregates were incubated for 90 min at 25°C with ClpB (1 µM hexamer) in the presence of 1∶1 mixtures of ATP and ATPγS and varying concentrations of Suramin. Reactivation of luciferase was then determined by luminescence and converted to % WT ClpB activity (activity of 1 µM WT ClpB in the presence of ATP and ATPγS). Values represent mean ±S.D. (n = 6–12). TEXT PRINTED IN THE PICTURE: (A) Suramin: Normalized ATPase Activity: 1.03 ([Suramin] μM: 0); Normalized ATPase Activity: 0.76 ([Suramin] μM: 100); Normalized ATPase Activity: 0.78 ([Suramin] μM: 50); Normalized ATPase Activity: 0.60 ([Suramin] μM: 25); Normalized ATPase Activity: 0.59 ([Suramin] μM: 10); Normalized ATPase Activity: 0.65 ([Suramin] μM: 5); Normalized ATPase Activity: 1.01 ([Suramin] μM: 1) | (B) Suramin: Normalized Luciferase Refolding Activity: 1.00 ([Suramin] μM: 0); Normalized Luciferase Refolding Activity: 0.16 ([Suramin] μM: 100); Normalized Luciferase Refolding Activity: 1.03 ([Suramin] μM: 50); Normalized Luciferase Refolding Activity: 1.39 ([Suramin] μM: 25); Normalized Luciferase Refolding Activity: 2.23 ([Suramin] μM: 10); Normalized Luciferase Refolding Activity: 1.82 ([Suramin] μM: 5); Normalized Luciferase Refolding Activity: 1.02 ([Suramin] μM: 1)

Hsp104^WT = molecular target: T2, Hsp104^WT (Saccharomyces cerevisiae, UniProt P31539); test: Manual ATPase assay, Hsp104^WT; format: biochemical, yeast; details: for Normalized ATPase Activity: Figure 2B
T2 construct: made in house; host or cells: E. coli BL21-DE3 RIL
Method: Wild-type or mutant Hsp104 (0.25 µM monomer) in ATPase buffer (20 mM HEPES-KOH pH 7.4, 20 mM NaCl and 10 mM MgCl2) was incubated for 60 or 10 min at 25°C in the presence of ATP (1 mM) as noted. ATPase activity was assessed by the release of inorganic phosphate determined by using a malachite green phosphate detection kit (Innova).

Hsp104^A503V = molecular target: T3, Hsp104^A503V (Saccharomyces cerevisiae, UniProt P31539, A503V); test: biochemical; format: biochemical, yeast
T3 construct: made in house; host or cells: E. coli BL21-DE3 RIL
Method: as §1
(§2) (A) Hsp104 variants (0.25 µM monomer) were incubated for 10 min with ATP (1 mM) and varying concentrations of Suramin. The amount of Pi produced was measured by absorbance at 635 nm. Absorbance values were normalized to the absorbance produced by each Hsp104 variant in the absence of inhibitor. Values represent mean ±S.D. (n = 6). (B) Urea-denatured firefly luciferase aggregates were incubated for 90 min at 25°C with Hsp104 variants (1 µM hexamer) plus 1∶1 mixtures of ATP and ATPγS (or ATP alone) and varying concentrations of Suramin. Luciferase reactivation was then determined and normalized to untreated disaggregase activity for each variant in the presence of ATPγS: ATP (or ATP alone). 1∶1 mixtures of ATP and ATPγS were used for Hsp104^WT and Hsp104^T317A, while ATP alone was used for Hsp104^A503V and Hsp104^N728A. Values represent mean ±S.D. (n = 6–12).

Hsp104^N728A = molecular target: T4, Hsp104^N728A (Saccharomyces cerevisiae, UniProt P31539, N728A); test: biochemical; format: biochemical, yeast; details: for Hsp104^N728A refolding activity: ATP alone
T4 construct: made in house; host or cells: E. coli BL21-DE3 RIL
Method: as §1, §2

T1 sequence (P63284 whole entry): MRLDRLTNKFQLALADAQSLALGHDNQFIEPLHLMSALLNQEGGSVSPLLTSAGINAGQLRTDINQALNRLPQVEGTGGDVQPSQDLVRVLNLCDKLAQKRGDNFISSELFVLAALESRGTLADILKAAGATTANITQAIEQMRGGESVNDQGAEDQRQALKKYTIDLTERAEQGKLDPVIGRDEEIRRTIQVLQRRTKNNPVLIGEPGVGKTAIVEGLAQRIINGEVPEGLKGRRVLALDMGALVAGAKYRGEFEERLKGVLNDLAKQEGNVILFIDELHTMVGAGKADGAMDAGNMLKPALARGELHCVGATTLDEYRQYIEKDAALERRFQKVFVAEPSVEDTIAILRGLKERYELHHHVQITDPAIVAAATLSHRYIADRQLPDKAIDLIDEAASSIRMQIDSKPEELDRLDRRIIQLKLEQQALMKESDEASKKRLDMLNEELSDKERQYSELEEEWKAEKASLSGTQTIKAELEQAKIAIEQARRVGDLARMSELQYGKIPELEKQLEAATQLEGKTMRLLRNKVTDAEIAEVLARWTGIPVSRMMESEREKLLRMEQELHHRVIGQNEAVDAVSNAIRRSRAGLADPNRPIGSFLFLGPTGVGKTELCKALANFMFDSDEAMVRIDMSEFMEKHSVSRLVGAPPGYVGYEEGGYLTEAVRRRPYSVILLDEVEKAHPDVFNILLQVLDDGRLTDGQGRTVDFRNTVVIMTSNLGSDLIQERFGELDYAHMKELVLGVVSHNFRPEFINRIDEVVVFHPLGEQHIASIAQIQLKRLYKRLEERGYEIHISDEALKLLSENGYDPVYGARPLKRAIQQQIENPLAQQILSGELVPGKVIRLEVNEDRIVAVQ
T2 sequence (P31539 whole entry): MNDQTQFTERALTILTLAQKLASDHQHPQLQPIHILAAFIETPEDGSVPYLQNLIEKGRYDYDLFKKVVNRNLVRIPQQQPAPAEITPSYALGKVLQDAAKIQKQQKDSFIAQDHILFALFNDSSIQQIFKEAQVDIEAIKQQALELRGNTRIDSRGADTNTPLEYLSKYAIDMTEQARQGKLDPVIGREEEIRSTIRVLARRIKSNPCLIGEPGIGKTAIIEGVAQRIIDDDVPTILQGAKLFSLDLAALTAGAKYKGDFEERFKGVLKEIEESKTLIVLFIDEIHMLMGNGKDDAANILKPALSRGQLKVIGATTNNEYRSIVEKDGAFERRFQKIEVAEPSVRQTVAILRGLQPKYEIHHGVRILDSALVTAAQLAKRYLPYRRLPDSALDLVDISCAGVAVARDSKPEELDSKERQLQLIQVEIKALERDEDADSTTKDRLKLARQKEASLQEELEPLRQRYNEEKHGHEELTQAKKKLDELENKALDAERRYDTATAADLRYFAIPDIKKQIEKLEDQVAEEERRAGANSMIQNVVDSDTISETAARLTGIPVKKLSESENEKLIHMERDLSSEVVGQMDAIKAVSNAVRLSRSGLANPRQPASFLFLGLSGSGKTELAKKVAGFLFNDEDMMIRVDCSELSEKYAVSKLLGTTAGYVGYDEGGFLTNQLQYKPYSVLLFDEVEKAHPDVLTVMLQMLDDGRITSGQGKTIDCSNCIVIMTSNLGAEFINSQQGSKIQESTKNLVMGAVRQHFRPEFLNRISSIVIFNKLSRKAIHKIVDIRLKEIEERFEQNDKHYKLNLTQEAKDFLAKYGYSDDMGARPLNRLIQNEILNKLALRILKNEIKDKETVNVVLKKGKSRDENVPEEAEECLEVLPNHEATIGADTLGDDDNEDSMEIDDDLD
T4 sequence (P31539 whole entry N728A): as the sequence (P31539 whole entry) above, with N728A counted along it
T3 sequence (P31539 whole entry A503V): as the sequence (P31539 whole entry) above, with A503V counted along it

## Cc1ccc(C(=O)Nc2ccc(S(=O)(=O)O)c3cc(S(=O)(=O)O)cc(S(=O)(=O)O)c23)cc1NC(=O)c1cccc(NC(=O)Nc2cccc(C(=O)Nc3cc(C(=O)Nc4ccc(S(=O)(=O)O)c5cc(S(=O)(=O)O)cc(S(=O)(=O)O)c45)ccc3C)c2)c1 [Suramin]
ClpB; ClpB 1 µM hexamer, Suramin 100 µM, 90 min 25°C, ATP:ATPγS 1:1, Figure 5B
  Normalized Luciferase Refolding Activity: 0.16
ClpB; ClpB, Suramin 1 µM, Figure 5B
  Normalized Luciferase Refolding Activity: 1.02
ClpB; ClpB, Suramin 5 µM, Figure 5B
  Normalized Luciferase Refolding Activity: 1.82
ClpB; ClpB, Suramin 10 µM, Figure 5B
  Normalized Luciferase Refolding Activity: 2.23
ClpB; ClpB, Suramin 25 µM, Figure 5B
  Normalized Luciferase Refolding Activity: 1.39
ClpB; ClpB, Suramin 50 µM, Figure 5B
  Normalized Luciferase Refolding Activity: 1.03
ClpB; Suramin 50 µM
  ClpB refolding power retained: 100%
ClpB; Suramin 100 µM, read-out: ClpB disaggregase activity remaining
  remaining activity at 100 µM: 16%
ClpB; low concentrations of Suramin
  Effect on ClpB luciferase reactivation: increased the amount of luciferase ClpB was able to reactivate
Hsp104^WT; 10 min reaction, ATP 1 mM
  IC50: ~3.39 µM
Hsp104^WT; 60 min, ATP 1 mM, varying concentrations, Figure 2A
  Effect on Hsp104 ATPase activity (Pi produced), manual assay: greatly diminished the amount of Pi produced in a concentration-dependent manner
Hsp104^WT; Hsp104 WT
  Inhibitor concentration of maximal ATPase inhibition: 25 µM
Hsp104^WT; Suramin 1 µM, 10 min, ATP 1 mM
  Normalized ATPase Activity: 1.08
Hsp104^WT; Suramin 5 µM, 10 min, ATP 1 mM
  Normalized ATPase Activity: 0.62
Hsp104^WT; Suramin 10 µM, 10 min, ATP 1 mM
  Normalized ATPase Activity: 0.37
Hsp104^WT; Suramin 25 µM, 10 min, ATP 1 mM
  Normalized ATPase Activity: 0.27
Hsp104^WT; Suramin 25 µM, 10 min, read-out: Hsp104^WT ATPase activity relative to uninhibited Hsp104
  activity at 25 µM: 30%
Hsp104^WT; Suramin 50 µM, 10 min, ATP 1 mM
  Normalized ATPase Activity: 0.29
Hsp104^WT; Suramin 100 µM, 10 min
  inhibition at 100 µM: > 60%
Hsp104^WT; Suramin 100 µM, 10 min, ATP 1 mM
  Normalized ATPase Activity: 0.33
Hsp104^WT; Suramin 100 µM, 10 min, read-out: Hsp104^WT ATPase activity relative to uninhibited protein
  activity at 100 µM: ~35%
Hsp104^WT; Suramin 250 µM, 10 min, ATP 1 mM
  Normalized ATPase Activity: 0.37
Hsp104^A503V
  IC50: ~610 nM
Hsp104^A503V; Suramin 1 µM, ATP alone
  Hsp104^A503V refolding activity: less than 50%
Hsp104^N728A
  IC50: ~92.4 µM
Hsp104^N728A; Suramin 1 µM
  Hsp104^N728A refolding activity: ~100%
Hsp104^N728A; Suramin 50 µM
  Hsp104^N728A refolding activity: ~36%
